Results reported in paper PMC6792352, “Limited Chemical Structural Diversity Found to Modulate Thyroid Hormone Receptor in the Tox21 Chemical Library” (Environmental Health Perspectives, 2019).
Counter-ions that a name gives are not always drawn. Like-named read-outs stand apart in the source and are kept apart here.

Tested on: GH3-TRE-Luc cell line
Details: read-out: AC50 (uM) modified / 1000, viability, 1 nM T3 present, 24 h

CCCCCCCCCCCCCC[N+](C)(C)C [Tetradonium bromide]
CC50 (Tox21_110001=Tox21_112327): 5.04 µM | CC50 (Tox21_110001=Tox21_302067): 8.21 µM

Nc1ccc(-c2ccc(N)c(N)c2)cc1N [3,3'-Diaminobenzidine]
CC50 (Tox21_110001=Tox21_302170): 93.2 µM

Cc1cc(-c2ccc(/N=N/c3ccc4c(S(=O)(=O)O)cc(S(=O)(=O)O)c(N)c4c3O)c(C)c2)ccc1/N=N/c1ccc2c(S(=O)(=O)O)cc(S(=O)(=O)O)c(N)c2c1O [C.I. Direct Blue 53]
CC50 (Tox21_110001=Tox21_113237): 21.8 µM

O=[N+]([O-])c1ccc(O)cc1 [Sodium 4-nitrophenolate]
CC50 (Tox21_110001=Tox21_300477): 44.7 µM

CCCCCCCCCCn1cc[n+](C)c1 [1-Decyl-3-methylimidazolium tetrafluoroborate]
CC50 (Tox21_110001=Tox21_200592): 13.1 µM

CCCCCCCCCCCCCCCCn1cc[n+](C)c1 [1-Hexadecyl-3-methylimidazolium tetrafluoroborate]
CC50 (Tox21_110001=Tox21_202647): 12.9 µM

CSc1ccc2c(c1)N(CCC1CCCCN1C)c1ccccc1S2 (stereo not shown) [Thioridazine]
CC50 (Tox21_110001=Tox21_110294): 6.53 µM

C[C@]12CC[C@@H]3c4ccc(O)cc4C[C@@H](CCCCCCCCC[S+]([O-])CCCC(F)(F)C(F)(F)F)[C@H]3[C@@H]1CC[C@@H]2O (stereo partly shown) [Fulvestrant]
CC50 (Tox21_110001=Tox21_110939): 0.00438 µM | CC50 (Tox21_110001=Tox21_202604): 0.00683 µM | CC50 (Tox21_110001=Tox21_303656): 2.26 µM

c1cc(C(c2ccc(OCC3CO3)cc2)C(c2ccc(OCC3CO3)cc2)c2ccc(OCC3CO3)cc2)ccc1OCC1CO1 (stereo not shown) [1,1,2,2-(4,4',4'',4'''-Tetraglycidyloxyphenyl)ethane]
CC50 (Tox21_110001=Tox21_202150): 25.2 µM

CCCCCCCCCCCCCCn1cc[n+](C)c1 [1-Methyl-3-tetradecylimidazolium chloride]
CC50 (Tox21_110001=Tox21_202660): 8.43 µM

CO[C@@H]1[C@H](OC(=O)/C=C/C=C/C=C/C=C/C(=O)O)CC[C@]2(CO2)[C@H]1[C@@]1(C)O[C@@H]1CC=C(C)C [Fumagillin]
CC50 (Tox21_110001=Tox21_112066): 42.9 µM

Oc1cccc2cccnc12 [8-Quinolinol salicylic acid (1:1)]
CC50 (Tox21_110001=Tox21_110005): 10.3 µM

COC(=O)[C@H]1[C@H]2C[C@@H]3c4[nH]c5ccccc5c4CCN3C[C@H]2C[C@@H](OC(=O)c2cc(OC)c(OC)c(OC)c2)[C@@H]1OC [Deserpidine]
CC50 (Tox21_110001=Tox21_112646): 1.94 µM | CC50 (Tox21_110001=Tox21_113102): 27.7 µM

CC[n+]1ccccc1 [1-Ethylpyridinium bromide]
CC50 (Tox21_110001=Tox21_202695): 32.7 µM

C#C[C@]1(O)CC[C@H]2[C@@H]3CCC4=CC(=O)CC[C@@H]4[C@H]3CC[C@@]21CC (racemic) [dl-Norgestrel]
CC50 (Tox21_110001=Tox21_303623): 64.5 µM

CN1CCc2cccc3c2[C@H]1Cc1ccc(O)c(O)c1-3 [Apomorphine]
CC50 (Tox21_110001=Tox21_110967): 27.3 µM

Oc1cccc2cccnc12 [8-Hydroxyquinoline sulfate]
CC50 (Tox21_110001=Tox21_303537): 1.43 µM

C[C@]12CC[C@@H]3c4ccc(O)cc4CC[C@H]3[C@@H]1CC[C@@H]2OC(=O)CCC1CCCC1 [Estradiol cypionate]
CC50 (Tox21_110001=Tox21_110003): 32.5 µM | CC50 (Tox21_110001=Tox21_112331): 43.4 µM | CC50 (Tox21_110001=Tox21_301818): 86.1 µM

CN(C)c1ccc(C(=C2C=CC(=[N+](C)C)C=C2)c2ccccc2)cc1 [Malachite green oxalate]
CC50 (Tox21_110001=Tox21_110008): 5.84 µM | CC50 (Tox21_110001=Tox21_202521): 0.0943 µM

CN(C)CCCN1c2ccccc2CCc2ccccc21 [Imipramine]
CC50 (Tox21_110001=Tox21_110174): 9.04 µM | CC50 (Tox21_110001=Tox21_301417): 19.5 µM

CCCCCCCCCC[N+](C)(C)CCCCCCCCCC [Didecyldimethylammonium bromide]
CC50 (Tox21_110001=Tox21_112302): 6.15 µM

CC/C(=C(\c1ccccc1)c1ccc(OCCN(C)C)cc1)c1ccccc1 [Tamoxifen]
CC50 (Tox21_110001=Tox21_201243): 13.9 µM | CC50 (Tox21_110001=Tox21_300539): 8.55 µM

CC[C@H]1CN2CCc3cc(OC)c(OC)cc3[C@@H]2C[C@@H]1C[C@H]1NCCc2cc(OC)c(OC)cc21 [Emetine]
CC50 (Tox21_110001=Tox21_110901): 0.0872 µM

CCN(CC)CCCC(C)Nc1ccnc2cc(Cl)ccc12 (stereo not shown) [Chloroquine bis(phosphate)]
CC50 (Tox21_110001=Tox21_110115): 19.6 µM

CCCCNC(=O)OCC#CI [3-Iodo-2-propynyl-N-butylcarbamate]
CC50 (Tox21_110001=Tox21_201864): 15.9 µM | CC50 (Tox21_110001=Tox21_301117): 4.22 µM

Oc1ccc(O)cc1 [Hydroquinone]
CC50 (Tox21_110001=Tox21_110169): 16 µM | CC50 (Tox21_110001=Tox21_202345): 32.2 µM | CC50 (Tox21_110001=Tox21_300015): 21.9 µM

CCN(CC)C(=S)S [Sodium diethyldithiocarbamate trihydrate]
CC50 (Tox21_110001=Tox21_302812): 8.88 µM

CO[C@H]1C[C@@H]2CC[C@@H](C)[C@@](O)(O2)C(=O)C(=O)N2CCCC[C@H]2C(=O)O[C@H]([C@H](C)C[C@@H]2CC[C@@H](O)[C@H](OC)C2)CC(=O)[C@H](C)/C=C(\C)[C@@H](O)[C@@H](OC)C(=O)[C@H](C)C[C@H](C)/C=C/C=C/C=C/1C [Sirolimus]
CC50 (Tox21_110001=Tox21_110870): 0.00123 µM | CC50 (Tox21_110001=Tox21_112750): 0.00263 µM

COc1ccc(CN(CCN(C)C)c2ccccn2)cc1 [Pyrilamine]
CC50 (Tox21_110001=Tox21_200978): 39.2 µM

CCCCCCCCCCn1cc[n+](C)c1 [1-Decyl-3-methylimidazolium hexafluorophosphate]
CC50 (Tox21_110001=Tox21_202624): 11.4 µM

O=C(c1ccc(OCCN2CCCCC2)cc1)c1c(-c2ccc(O)cc2)sc2cc(O)ccc12 [Raloxifene hydrochloride]
CC50 (Tox21_110001=Tox21_110255): 5.6 µM | CC50 (Tox21_110001=Tox21_302369): 2.98 µM

CC(CN1c2ccccc2Sc2ccccc21)N(C)C (stereo not shown) [Promethazine]
CC50 (Tox21_110001=Tox21_110227): 17.9 µM

Clc1ccc2c(c1)C(N1CCNCC1)=Nc1ccccc1O2 [Amoxapine]
CC50 (Tox21_110001=Tox21_302352): 20.3 µM

CN(C)c1ccc2nc3ccc(=[N+](C)C)cc-3sc2c1 [Methylene blue]
CC50 (Tox21_110001=Tox21_112497): 21.1 µM | CC50 (Tox21_110001=Tox21_302087): 45.4 µM
